Test results published in patent publication US10913983B2, “Sensitivity markers and uses for CDK7 inhibitors in breast cancers” (UNIVERSITY OF SOUTH CAROLINA, priority 2017, dated 2021).

What was measured:
Type in all cases: cell-based
MCF7 = assay: Cell proliferation MTT assay; conditions: MCF7, 7 days, read-out: 7 day IC50
Method: (§1) Cells were seeded in 12-well plates at densities ranging from 10000-30000 cells/well and after 24 hours cells were treated with 10, 40 and 100 nM THZ1 in triplicate. After 7 days the cells were imaged using Zeiss Axiovert 200 microscope using a 20× objective lens. Additionally, cells were plated in 96-well plates at a density of 2000 cells/well and after 24 hours treated with 0-10 μM THZ1. After 2 and 7 days the growth of the cells was measured by MTT assay.
(§2) All results were presented as mean±standard deviation of 4-8 parallel assessments. Similar results were obtained from a minimum of two independent experiments. […] Densitometry was performed on duplicate immunoblots using ImageLab software (Biorad) and normalized to tubulin loading controls and then correlated with the THZ1 IC50 values of each cell line. Statistical analyses were performed using SPSS 18.0 (SPSS Inc). Bi-variant scatter graphs and Spearman rank analyses were performed to evaluate associations between protein levels, mRNA and response to inhibition. IC50 values were calculated for MTT assays using CompuSyn software.

T47D = assay: Cell proliferation MTT assay; conditions: 7 days, read-out: 7 day IC50
Method: as §1, §2

MDA-MB-361 = assay: Cell proliferation MTT assay; conditions: MDA-MB-361, 7 days, read-out: 7 day IC50
Method: as §1, §2

SKBR3 = assay: Cell proliferation MTT assay; conditions: SKBR3, 7 days, read-out: 7 day IC50
Method: as §1, §2

JIMT-1 = assay: Cell proliferation MTT assay; conditions: JIMT-1, 7 days, MTT; read-out: 7 day IC50
Method: as §1, §2

MDA-MB-231 = assay: Cell proliferation MTT assay; conditions: MDA-MB-231, 7 days, read-out: 7 day IC50
Method: as §1, §2

ZR-75-1 = assay: Cell proliferation MTT assay; conditions: ZR-75-1, 7 days, read-out: 7 day IC50
Method: as §1, §2

[1] = tested on: panel of breast cancer cell lines; assay: Cell proliferation MTT assay, cell line panel; conditions: 7 days
Method: as §1, §2
To investigate the effect of CDK7 inhibition in a time and dose dependent manner, an extended panel of 11 breast cancer cell lines were screened for response to THZ1 after 2 and 7 days of treatment.

IC50 (MCF7): 32.1 µM | IC50 (T47D): 8.5 µM | IC50 (MDA-MB-361): 4.9 µM | IC50 (SKBR3): 8.9 µM | IC50 (MDA-MB-231): 39.5 µM
SMILES: CC(C)c1cnn2c(NCc3ccccc3)cc(NCCCCCCN)nc12 [BS-181]
IC50 (JIMT-1): 11.1 µM | IC50 (ZR-75-1): 19.6 µM | growth inhibition ([1]; all tested breast cancer cell lines): inhibited the growth of all tested breast cancer cell lines | efficiency of growth inhibition compared with THZ1 ([1]; cell line panel): much less efficient than THZ1
